According to ChEMBL document CHEMBL1159386, “New bioactive coumarins from Kielmeyera albopunctata” (2003):
≈ marks a conversion by molar mass, not a printed value.

Assays:
Format in all cases: functional
[1] = test system: Trypanosoma cruzi; assay: Antitrypanosomal activity against Trypanosoma cruzi trypomastigotes assessed as parasite lysis 7.5 ug/mL after 24 hrs
[2] = test system: KB; assay: Cytotoxicity against human KB cells; conditions: read-out: ED50 (the source's name)
[3] = test system: Lu1; assay: Cytotoxicity against human Lu1 cells; conditions: read-out: ED50 (the source's name)
[4] = test system: LNCaP; assay: Cytotoxicity against human LNCAP cells; conditions: read-out: ED50 (the source's name)
[5] = test system: Col2; assay: Cytotoxicity against human Col2 cells; conditions: read-out: ED50 (the source's name)
[6] = test system: Trypanosoma cruzi; assay: Antitrypanosomal activity against Trypanosoma cruzi trypomastigotes assessed as parasite lysis 500 ug/mL after 24 hrs
[7] = test system: Trypanosoma cruzi; assay: Antitrypanosomal activity against Trypanosoma cruzi trypomastigotes assessed as parasite lysis 125 ug/mL after 24 hrs

CN(C)c1ccc(C(=C2C=CC(=[N+](C)C)C=C2)c2ccc(N(C)C)cc2)cc1.[Cl-] [GENTIAN VIOLET]
Activity [1]: 50%

CCC(C)c1cc(=O)oc2c(C(=O)CC(C)CO)c(O)c3c(c12)OC(C(C)(C)O)C3 (stereo not given)
EC50 [2]: > 20 µg/mL
EC50 [3]: > 20 µg/mL
EC50 [4]: > 20 µg/mL
EC50 [5]: > 20 µg/mL

CC(C)=CCc1c(O)c(C(=O)CC(C)CO)c2oc(=O)cc(-c3ccccc3)c2c1O (stereo not given)
EC50 [2]: 17.7 µg/mL (≈ 41.9 µM)
EC50 [3]: 19.8 µg/mL (≈ 46.9 µM)
EC50 [4]: 15.9 µg/mL (≈ 37.6 µM)
Activity [6]: 98%
EC50 [5]: 17.4 µg/mL (≈ 41.2 µM)

CCC(C)c1cc(=O)oc2c(C(=O)CC(C)CO)c(O)c(CC=C(C)C)c(O)c12 (stereo not given)
EC50 [2]: 15.8 µg/mL (≈ 39.3 µM)
EC50 [3]: 19.4 µg/mL (≈ 48.2 µM)
Activity [7]: 80%
EC50 [4]: 14 µg/mL (≈ 34.8 µM)
Activity [6]: 100%
EC50 [5]: 13.1 µg/mL (≈ 32.5 µM)

Cc1c2ccncc2c(C)c2c1[nH]c1ccccc12 [ELLIPTECINE]
EC50 [2]: 0.04 µg/mL (≈ 0.162 µM)
EC50 [3]: 0.02 µg/mL (≈ 0.0812 µM)
EC50 [4]: 0.8 µg/mL (≈ 3.25 µM)
EC50 [5]: 0.3 µg/mL (≈ 1.22 µM)
